Measured values: PMC6328429, “Synthesis of a benzoxazinthione derivative of tanaproget and pharmacological evaluation for PET imaging of PR expression” (EJNMMI Radiopharmacy and Chemistry, 2019)

Key:
[1] = target: T1, progesterone receptor (PR) (Homo sapiens, UniProt P06401); test: T47D alkaline phosphatase (AP) potency assay; type: cell-based; settings: for EC50 / T47D alkaline phosphatase assay EC50: agonist response, 48 h incubation; for EC50 / T47D alkaline phosphatase assay EC50 / IC50: average of at least n = 3 ± SD; for IC50: inhibition of progesterone
T1 construct: endogenous in cells; host or cells: T47D breast carcinoma cells
T1 sequence (P06401 1-933): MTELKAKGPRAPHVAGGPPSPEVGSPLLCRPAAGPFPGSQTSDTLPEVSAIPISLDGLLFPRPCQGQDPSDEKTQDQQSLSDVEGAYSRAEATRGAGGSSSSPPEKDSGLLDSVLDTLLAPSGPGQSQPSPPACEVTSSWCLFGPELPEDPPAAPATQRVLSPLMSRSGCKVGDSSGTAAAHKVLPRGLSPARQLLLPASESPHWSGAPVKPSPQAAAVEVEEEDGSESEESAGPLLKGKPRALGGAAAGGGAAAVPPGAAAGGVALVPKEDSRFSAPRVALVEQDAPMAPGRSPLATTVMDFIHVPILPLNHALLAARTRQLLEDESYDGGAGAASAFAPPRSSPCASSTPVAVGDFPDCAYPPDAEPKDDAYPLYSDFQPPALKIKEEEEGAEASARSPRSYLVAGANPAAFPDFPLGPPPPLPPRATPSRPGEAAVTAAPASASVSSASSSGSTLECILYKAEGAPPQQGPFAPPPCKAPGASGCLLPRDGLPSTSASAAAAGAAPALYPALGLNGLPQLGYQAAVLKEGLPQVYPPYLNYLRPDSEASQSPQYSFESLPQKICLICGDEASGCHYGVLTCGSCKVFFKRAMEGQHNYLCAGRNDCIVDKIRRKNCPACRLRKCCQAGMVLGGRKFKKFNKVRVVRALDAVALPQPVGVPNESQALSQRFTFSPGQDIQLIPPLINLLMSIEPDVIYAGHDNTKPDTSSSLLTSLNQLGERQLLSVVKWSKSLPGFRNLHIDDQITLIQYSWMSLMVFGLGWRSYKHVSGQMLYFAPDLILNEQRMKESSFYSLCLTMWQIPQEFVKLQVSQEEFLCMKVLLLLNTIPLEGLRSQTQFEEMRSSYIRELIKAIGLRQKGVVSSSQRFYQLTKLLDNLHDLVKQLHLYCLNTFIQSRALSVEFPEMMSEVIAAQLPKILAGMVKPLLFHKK
Description: The method described by Di Lorenzo et al was followed with minor adaptation (Di Lorenzo et al., [1991]). In brief, T47D breast carcinoma cells were seeded in 96-well plates at 50,000 cell/well in RPMI medium supplemented with 10% FBS. After overnight culture, the medium was changed to RPMI phenol red free containing 2% charcoal-stripped FBS. After 24 h, the cells were treated with progesterone (Sigma Aldrich, Gillingham, UK) or the library compounds. Progesterone and the test compounds were dissolved in DMSO (100%) and diluted into treatment medium to give a final DMSO (v/v) concentration of 0.1%. After incubation (48 h) the treatment was finalised by twice washing the plates with PBS. Cells were lysed by two freeze-thaw cycles (− 80 °C). Cellular alkaline phosphatase activity was determined by adding Femto ELISA-AP substrate (200 μL) and optical density measurements taken at 5 and 10 min intervals at a wavelength of 405 nm. Data was interpreted using Graphpad Prism (GraphPad, CA, USA) using the model: dose-response simulation/inhibition, log(agonist/inhibition) vs. response – variable slope (four parameters). For compounds where EC50 > 10,000, an antagonist profile was assumed and the experiment was repeated with the inclusion of progesterone (3 mM) with the library compound. Data shown in the supporting information (Additional file 1: Figure S32).

[2] = In vitro non-radioactive metabolite analysis and clearance in HLM; type: in vitro ADME, human
Description: (§1) Microsomal incubations were performed using a Hamilton Microlab Star liquid handling workstation (Hamilton Robotics, Bonaduz, Switzerland). Test compound 2 (final concentration 1 or 10 μM, 1% DMSO) was pre-incubated at 37 °C for 10 min in MLM or HLM (final concentration 1 mg/ml prepared in 10 mM PBS). Reactions were initiated by the addition of NADPH (final concentration 1 mM). Aliquots were removed from each incubation and quenched in 3 volumes of ice-cold MeOH containing internal standard olomoucine (500 nM in MeOH) at − 1, 0, 5, 15, 30 and 60 min. Incubations were conducted in singlicate. […] Terminated incubations were centrifuged at 3700 rpm at 4 °C for 30 min and supernatant taken for analysis. Microsomal incubations were analysed by liquid chromatography-tandem mass spectrometry (LC-MS/MS). This consisted of a Dionex Ultimate 3000 UHPLC system coupled to a ThermoScientific Q Exactive Plus orbitrap mass spectrometer (Thermo Fisher Scientific Inc., Waltham, USA). Chromatographic separation was achieved using an Acquity UPLC HSS T3 column (1.8 μm, 100 × 2.1 mm) (Waters, Elstree, UK) at 50 °C and a binary mobile phase gradient at a flow rate of 0.4 ml/min. Initial LC conditions comprised 10% formic acid (0.1%) in water (A), 90% methanol (B). This was ramped to […] at 12 min. Sample analysis was by positive ion electrospray ionization. The capillary voltage was 3.5 kV. Full MS/dd-MS^2 (full MS scan followed by data dependent MS/MS) and Full MS/AIF (full MS scan followed by all ion fragmentation) workflows were used in combination. Full MS was performed at a resolution of 70,000, AGC target 1 e^6; dd-MS2 at a resolution of 17,5000, AGC target 1 e^5. LC-MS response (peak area of the analyte/peak area of internal standard) was fitted to a nonlinear single exponential model using software GraphPad Prism software (v6.07, GraphPad Software, Inc., La Jolla, USA). Elimination rate constant (k) was determined and intrinsic clearance, CLint, was calculated as CLint = (V.k)/mg protein where V is the incubation volume (μl) and mg protein is the mg microsomal protein in the incubation. Identification of metabolites in microsomal incubations and elucidation of their structures was undertaken with Compound Discoverer software (v2.0.0.303, Thermo Fisher Scientific Inc., Waltham, USA).

[3] = In vitro non-radioactive metabolite analysis and clearance in MLM; type: in vitro ADME, mouse
Description: as §1

Row | SMILES | EC50 [1] [nM] | T47D alkaline phosphatase assay EC50 [1] | IC50 [1] [nM] | also measured
1 | CC1(C)OC(=S)Nc2ccc(-c3ccc(F)nc3)cc21 [Compound 4, 6-(6-fluoropyridin-3-yl)-4,4-dimethyl-1H-benzo[d][1,3]oxazine-2(4H)-thione] | 3674 ± 0.08 | – | – | –
2 | CC1(C)OC(=O)Nc2ccc(-c3ccc(F)nc3)cc21 [Compound 3, 6-(6-fluoropyridin-3-yl)-4,4-dimethyl-1H-benzo[d][1,3]oxazin-2(4H)-one] | > 10000 | did not induce an agonist response | 795 ± 0.25 | –
3 | CC1(C)OC(=O)Nc2ccc(-c3cccnc3F)cc21 [Compound 1, 6-(2-fluoropyridin-3-yl)-4,4-dimethyl-1H-benzo[d][1,3]oxazin-2(4H)-one] | > 10000 | did not induce an agonist response | 844.8 ± 0.23 | Clearance (CLint) in HLM ([2]; HLM 1 mg/ml, NADPH 1 mM, 37 °C): comparable clearance; Metabolite identification by mass spectrometry in HLM ([2]; HLM incubation, LC-MS/MS): defluorinated species; Clearance (CLint) in MLM ([3]; MLM 1 mg/ml, NADPH 1 mM, 37 °C): comparable clearance; Metabolite identification by mass spectrometry in MLM ([3]; MLM incubation, LC-MS/MS): defluorinated species

Stronger by EC50 [1], values ahead:

Row | EC50 [1] [nM] | T47D alkaline phosphatase assay EC50 [1] | IC50 [1] [nM] | SMILES | also measured
4 | 432.5 ± 0.24 | – | – | CC1(C)OC(=S)Nc2ccc(-c3ccc(F)c(Cl)c3)cc21 [Compound 6, 6-(3-chloro-4-fluorophenyl)-4,4-dimethyl-1H-benzo[d][1,3]oxazine-2(4H)-thione] | fold more potent (EC50) than oxocarbamate derivative 5 ([1]; compound 6 versus 5): ~5 fold
5 | 2294 ± 0.29 | – | – | CC1(C)OC(=O)Nc2ccc(-c3ccc(F)c(Cl)c3)cc21 [Compound 5, 6-(3-chloro-4-fluorophenyl)-4,4-dimethyl-1H-benzo[d][1,3]oxazin-2(4H)-one] | –
6 | 0.5 | – | – | Cn1c(C#N)ccc1-c1ccc2c(c1)C(C)(C)OC(=S)N2 [TNP, Tanaproget] | –
